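Compound exposure: 48 hours, 5 concentrations, 96-well plates. Definition used: TGI = concentration required for complete inhibition of growth.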
Columns and labels:
Assay in all cases: inhibition of tumour cell growth, NCI panel, 48 h
[1] = test system: MOLT-4 leukemia
[2] = test system: HOP-62 NSCLC
[3] = test system: HCT-15 colon
[4] = test system: NCI-H23 lung
[5] = test system: SN12C renal
[6] = test system: 786-0 renal
[7] = test system: HL-60(TB) leukemia
[8] = test system: NCI/ADR-RES ovarian
[9] = test system: UACC-62 melanoma
[10] = test system: OVCAR-8 ovarian
[11] = test system: A498 renal
[12] = test system: SR leukemia
[13] = test system: SK-MEL-5 melanoma

SMILES | TGI [1] [µM] | TGI [2] [µM] | TGI [3] [µM] | TGI [4] [µM] | TGI [5] [µM] | TGI [6] [µM] | TGI [7] [µM] | TGI [8] [µM] | TGI [9] [µM] | TGI [10] [µM] | TGI [11] [µM] | TGI [12] [µM] | TGI [13] [µM]
O=CN1CCN(C(=O)c2ccc(Cl)cc2)C1=S | 48.2 | 44 | 55.8 | 53.6 | 28 | 19.7 | 44.1 | > 100 | 29.3 | 31.3 | 29.3 |  | 
CC1C2CC(CC2O)C1(C)C (configuration not stated) | > 100 | > 100 |  | > 100 | > 100 | > 100 | > 100 |  | > 100 | > 100 | > 100 | > 100 | > 100
c1ccc2c(c1)ncn2CCn1ccnc1 | > 100 | > 100 | > 100 | > 100 | > 100 | > 100 | > 100 | > 100 | > 100 | > 100 | > 100 |  | > 100
O=C1NC(=O)/C(=C/c2ccc(S(=O)(=O)N/N=C/c3ccccc3)cc2)N1 | > 100 | > 100 | > 100 | > 100 | > 100 | > 100 | > 100 | > 100 | > 100 | > 100 | > 100 |  | > 100
CCOC(=O)c1ncn2c1[nH]c(=O)c1ccccc12 | > 100 |  | > 100 | > 100 | > 100 | > 100 |  |  | > 100 | > 100 |  | > 100 | > 100
N=C1/C(=C/c2ccccc2)C(=O)N=C2SC=NN12 | > 100 | > 100 | > 100 | > 100 | > 100 | > 100 | > 100 | > 100 | > 100 | > 100 |  | > 100 | > 100
O=C(O)c1cccc(S(=O)(=O)NN2C(=O)CSC2c2ccccc2Cl)c1 (configuration not stated) | > 100 | > 100 | > 100 | > 100 | > 100 | > 100 | > 100 |  | > 100 | > 100 |  | > 100 | > 100
CCOC(=O)C1=COC(C)(C)CC1=O | > 100 | > 100 | > 100 | > 100 | > 100 | > 100 |  | > 100 | > 100 | > 100 | > 100 |  | > 100
Cc1ccccc1C(=O)NC(O)(C(F)(F)F)C(F)(F)F | > 100 | > 100 | > 100 | > 100 | > 100 | > 100 | > 100 | > 100 |  | > 100 | > 100 |  | > 100
COc1ccc(C(=O)/C=C/c2ccc(OCC#N)cc2)cc1OC | 63.6 | 36.4 | 45.5 | 54.5 | 32.3 | 86.7 |  | 50.2 | 36.7 | > 100 |  | 61.2 | 32.2
O=C(OCC(Cl)(Cl)Cl)N1CC[C@@H](C2CCCCC2)C1 | 56.4 | 38 | 35.9 | 64.2 | > 100 | 43 |  | 32.9 | 85.5 |  |  | 69.4 | 36.6
Clc1cc2nnn(C3CCCCO3)c2cc1Cl (configuration not stated) | > 100 | > 100 | > 100 | > 100 | > 100 | > 100 |  | > 100 | > 100 | > 100 | > 100 | > 100 | > 100
CCCC1=NC(C(F)(F)F)(C(F)(F)F)N=C(N2CCOCC2)O1 | > 100 | > 100 | > 100 | > 100 | > 100 | > 100 | > 100 | > 100 | > 100 | > 100 |  | > 100 | > 100
c1ccc(N=C2C(=Nc3ccccc3)N(C3CCCCC3)C(=NC3CCCCC3)N2c2ccccc2)cc1 | > 100 | > 100 | > 100 | > 100 |  | > 100 | > 100 |  |  | > 100 | > 100 | > 100 | > 100
CC1(Br)S(=O)(=O)OCCOS1(=O)=O | > 100 | > 100 | > 100 | > 100 | > 100 | > 100 | > 100 |  | > 100 | > 100 | > 100 | > 100 | > 100
CC(=O)N1N=C(c2ccccc2Nc2ccccc2C2=NN(C(C)=O)C(c3ccccc3)O2)OC1c1ccccc1 (configuration not stated) | > 100 | > 100 | > 100 | > 100 | > 100 | > 100 |  | > 100 | > 100 | > 100 |  | > 100 | > 100
C=CC(Br)(CBr)CCC(Br)C(C)(C)Br (configuration not stated) | 35.8 | 36.1 | 31.8 | 30.3 | 29.7 | 25.6 |  |  | 24.6 | 30.1 |  | 21.5 | 27.8
N#Cc1nc(-c2ccccc2O)oc1N | > 100 | > 100 | > 100 |  | > 100 | > 100 | > 100 |  | > 100 | > 100 | > 100 |  | > 100
CC1=C(S(=O)c2ccc(C)cc2)CCC2(CCCCO2)O1 (configuration not stated) | > 100 | > 100 | > 100 | > 100 | > 100 | > 100 | > 100 | > 100 | > 100 | > 100 | > 100 |  | > 100
Cc1no[n+]([O-])c1/C=N/NS(=O)(=O)c1ccccc1 | > 100 | > 100 | > 100 | > 100 | > 100 | > 100 | > 100 |  | > 100 | > 100 | > 100 | > 100 | > 100

Source: PubChem BioAssay (NCI)
